Test results from paper PMC4929432, “The Oligopeptide Permease Opp Mediates Illicit Transport of the Bacterial P-site Decoding Inhibitor GE81112” (Antibiotics, 2016).

How the values were obtained:
[1] = tested on: Opp of B. subtilis; conditions: ref [10]; cited from earlier work
[2] = tested on: B. subtilis resistant clones; assay: Cross-resistance of resistant clones; format: cell-based; conditions: of 10 GE81112-resistant clones
[3] = tested on: bacterial peptide transporting systems; conditions: ref [10]; cited from earlier work
Excerpt: Indeed, several peptide transport systems exist in E. coli as well in B. subtilis and the peptides actively transported inside the cells can supp ...

[4] = tested on: opp expression; conditions: ref [17],[18]; cited from earlier work
[5] = tested on: E. coli DH5α + pB2 (oppBCDF); assay: Growth inhibition halo; format: cell-based; conditions: 10 μg; minimal medium agar; 24 h at 37 °C
Procedure: (§1) The inhibition of bacterial growth by antibiotics was also determined from the diameter of the growth inhibition halo. Bacterial suspensions obtained after overnight growth in minimal medium were diluted and inoculated in 4 mL of Agar–H2O (0.75%) and plated on minimal medium. Ten-microliter spots of the antibiotics were added and the growth inhibition halos measured after 24 h incubation at 37 °C.

[6] = tested on: E. coli MG1655; assay: Growth inhibition halo; format: cell-based
Procedure: as §1

[7] = tested on: E. coli DH5α + pBΦ30 + pB2; assay: Growth inhibition halo; format: cell-based; conditions: 10 μg; minimal medium agar; 24 h at 37 °C
Procedure: as §1

[8] = tested on: E. coli SS320 (wt); assay: Growth inhibition halo; format: cell-based; conditions: minimal medium agar, 24 h at 37 °C
Procedure: as §1

[9] = tested on: E. coli DH5α; assay: Growth inhibition halo; format: cell-based
Procedure: as §1

[10] = tested on: E. coli SS5012 + pBΦ30 (oppA); assay: Growth inhibition halo; format: cell-based; conditions: minimal medium agar, 24 h at 37 °C
Procedure: as §1

[11] = tested on: E. coli DH5α + pBΦ30 (oppA); assay: Growth inhibition halo; format: cell-based; conditions: 10 μg; minimal medium agar; 24 h at 37 °C
Procedure: as §1

[12] = tested on: E. coli SS5012 (ΔoppABCDF); assay: Growth inhibition halo; format: cell-based; conditions: for Halo of Inhibition: minimal medium agar, 24 h at 37 °C
Procedure: as §1

[13] = tested on: E. coli SS320 (wt) + pB2 + pBΦ30; assay: Growth inhibition halo; format: cell-based; conditions: for Halo of Inhibition: minimal medium agar, 24 h at 37 °C
Procedure: as §1

[14] = tested on: E. coli SS5012 + pB2 (oppBCDF); assay: Growth inhibition halo; format: cell-based; conditions: minimal medium agar, 24 h at 37 °C
Procedure: as §1

[15] = tested on: E. coli SS5012 + pB2 + pBΦ30; assay: Growth inhibition halo; format: cell-based; conditions: for Halo of Inhibition: minimal medium agar, 24 h at 37 °C
Procedure: as §1

[16] = tested on: E. coli MG1655 resistant mutants; assay: Cross-resistance of resistant mutants; format: cell-based; conditions: of 100 GE81112-resistant colonies; tri-L-ornithine 100 μg/mL
[17] = tested on: mRNA translation in cell-free extracts; conditions: ref [16]; cited from earlier work
Excerpt: (§2) Therefore, the most likely explanation for the observed tri-L-ornithine/GE81112 cross-resistance is that the mutations have inactivated the same transport mechanism that allows these two molecules to enter the cell.

[18] = tested on: translation in vivo; conditions: early studies; ref [16]; cited from earlier work
Excerpt: as §2

[19] = tested on: ribosome, 16S rRNA mutation G926C; assay: In vitro mRNA translation; format: biochemical; conditions: E. coli AVS69009 16S rRNA G926C
Procedure: (§3) The ribosomal localization of GE81112, as determined by a recent crystallographic study, places this antibiotic in a position that is not too far away from the binding site of kasugamycin [20, 21]. For this reason, some ribosomal mutants bearing 16S rRNA base substitutions that cause kasugamycin resistance were tested for their sensitivity to GE81112 inhibition.
(§4) The 027IF2Cp(A) mRNA and the bacterial S30 cell extracts were prepared as described. The incubation conditions for mRNA translation and for the determination of synthesized product have also been previously described.

[20] = tested on: ribosome, 16S rRNA mutation A1518U; assay: In vitro mRNA translation; format: biochemical; conditions: E. coli AVS69009 16S rRNA A1518U
Procedure: as §3, §4

[21] = tested on: ribosome, 16S rRNA mutation G926U; assay: In vitro mRNA translation; format: biochemical; conditions: E. coli AVS69009 16S rRNA G926U
Procedure: as §3, §4

[22] = tested on: ribosome, 16S rRNA mutation A794G; assay: In vitro mRNA translation; format: biochemical; conditions: E. coli AVS69009 16S rRNA A794G
Procedure: as §3, §4

[23] = tested on: ribosome, 16S rRNA mutation G926A; assay: In vitro mRNA translation; format: biochemical; conditions: E. coli AVS69009 16S rRNA G926A
Procedure: as §3, §4

[24] = tested on: ribosome, 16S rRNA mutation A794U; assay: In vitro mRNA translation; format: biochemical; conditions: E. coli AVS69009 16S rRNA A794U
Procedure: as §3, §4

[25] = tested on: ribosome, 16S rRNA wt; assay: In vitro mRNA translation; format: biochemical; conditions: E. coli AVS69009 16S rRNA wt
Procedure: as §3, §4

[26] = tested on: Opp; conditions: ref [17]; cited from earlier work
[27] = tested on: glutamine synthetase; conditions: product of bialaphos hydrolysis; ref [10]; cited from earlier work
[28] = 10 μg, minimal medium agar, 24 h at 37 °C

For bialaphos, the “active transport by Opp” value [1] is listed as “actively transported by Opp”, the “GE81112-resistant clones sensitive to bialaphos” value [2] is listed as “none” and the “active transport with antibacterial effects” value [3] is listed as “actively transported inside the cell causing antibacterial effects”.

For `CC(C)C[C@H](N)C(=O)O` [L-leucine], the “effect on opp expression” value [4] is listed as “induces opp expression”.

With tri-L-ornithine [Orn3] the “Halo of Inhibition” value [5] was 10 mm, the “Halo of Inhibition” value [6, 28] was 10 mm and the “growth inhibition, in words” value ([6]; E. coli MG1655 (Table 4)) was “inhibited”. For the same compound, the “Halo of Inhibition” value [7] was 14 mm, the “Halo of Inhibition” value ([8]; 1 μg) was 7 mm and the “Halo of Inhibition” value ([8]; 10 μg) was 12 mm. The “Halo of Inhibition” value [9, 28] was 0 mm, the “growth inhibition, in words” value ([9]; E. coli DH5α (Table 4)) was “unaffected” and the “Halo of Inhibition” value ([10]; 1 μg) was 0 mm. For the same compound, the “Halo of Inhibition” value ([10]; 10 μg) was 0 mm, the “Halo of Inhibition” value [11] was 11 mm and the “Halo of Inhibition” value ([12]; 1 μg) was 0 mm. For the same compound, the “Halo of Inhibition” value ([12]; 10 μg) was 0 mm, the “growth inhibition on minimal medium agar, in words” value ([12]; E. coli 5012, opp− mutant) was “insensitive” and the “Halo of Inhibition” value ([13]; 1 μg) was 17 mm. For the same compound, the “Halo of Inhibition” value ([13]; 10 μg) was 27 mm, the “sensitivity, in words” value ([13]; wt transformed with both pBΦ30 and pB2) was “more sensitive” and the “Halo of Inhibition” value ([14]; 1 μg) was 0 mm. The “Halo of Inhibition” value ([14]; 10 μg) was 0 mm, the “Halo of Inhibition” value ([15]; 1 μg) was 18 mm and the “Halo of Inhibition” value ([15]; 10 μg) was 26 mm. The “sensitivity, in words” value ([15]; expression in trans of oppA together with oppBCDF) was “sensitive”, the “number of GE81112-resistant mutants cross-resistant to tri-L-ornithine” value [16] was 100 and the “inhibition of mRNA translation in vitro” value [17] was “unable to inhibit mRNA translation”. The “inhibition of translation in vivo” value [18] was “inhibits translation in vivo” and the “active transport with antibacterial effects” value [3] was “actively transported inside the cell causing antibacterial effects”.

In the case of `C[C@H]1O[C@H](O[C@H]2[C@H](O)[C@@H](O)[C@@H](O)[C@H](O)[C@@H]2O)[C@@H](N)C[C@@H]1NC(=N)C(=O)O` [Kasugamycin], the “IC50 of mRNA Translation” value [19] was 192 µg/mL, the “IC50 of mRNA Translation” value [20] was 880 µg/mL and the “IC50 of mRNA Translation” value [21] was 750 µg/mL. The “IC50 of mRNA Translation” value [22] was 780 µg/mL, the “IC50 of mRNA Translation” value [23] was 390 µg/mL and the “IC50 of mRNA Translation” value [24] was 384 µg/mL. For the same compound, the “IC50 of mRNA Translation” value [25] was 12 µg/mL.

For tri-L-alanine, the Opp substrate [26] is listed as “known non-toxic Opp substrate”.

In the case of `CP(=O)(O)CC[C@H](N)C(=O)O` [phosphinothricin], the “inhibition of glutamine synthetase” value [27] is listed as “inhibits glutamine synthetase”.
